Measurements from patent US11919895B2, “GPR183 antagonists for the treatment of pain” (Saint Louis University, priority 2019, dated 2024).
Entries after “also recorded” stand apart in the source; their conditions may differ. Where two headings read alike, the source gives them in different places.

How the values were obtained:
[1] = system: GPR183 signaling in the spinal cord; experiment: Example 2: mechano-allodynia induced by intrathecal GPR183 agonist; assay type: in vivo, mice
Protocol: (§1) α,25-dihydroxycholesterol (7α,25-OHC) was purchased from Avanti Polar Lipids (Alabaster, AL) and dissolved in DMSO as a 2 mM stock. For injections 7α,25-OHC was diluted in saline. […] For intrathecal injections, NIBR189 was diluted in saline. Fluoronated 7α,25-OHC analog (SLUPP-1492) was synthesized as described previously (Deng et al., 2016) (detailed methods below and continued in Supplemental methods) and prepared as a 10 mM stock in DMSO. For injections SLUPP-1492 was diluted in saline. SAE compounds were purchased from Enamine (Monmouth Jet., NJ), all compounds were purified via normal phase chromatography and had purities of ≥95%. 100 mM Stock solutions of the SAE compounds were prepared in DMSO. For intrathecal injections, SAE compounds were diluted in saline. Acute intrathecal (i.th.) injections of compounds were performed as described previously (Lu and Schmidtko, 2013), all compounds were administered intrathecally in a total volume of 5-10 μL.
(§2) Mechano-allodynia was measured as previously described (Yosten et al., 2020) using calibrated von Frey filaments (Stoelting; range in mice: 0.07-2.00 g; in rats: 2-26 g) using the Dixon up-and-down method (Dixon, 1991). Mechano-allodynia was defined as a significant (p<0.05) reduction in mechanical paw withdrawal threshold [PWT (g)] compared to baseline forces (before treatment).

GPR183 [2] = target: T1, GPR183 (Homo sapiens, UniProt P32249); experiment: Calcium mobilization agonism assay in HL-60 cells; assay type: cell-based; design: host or cells: HL-60 (human leukemia) cells; conditions: for EC80: calcium mobilization
Protocol: The Human leukemia (HL)-60 cells (American Type Culture Collection; Manassas, VA) were cultivated in RPMI 1640 media containing 10% heat-inactivated fetal bovine serum (FBS), 1% penicillin, and 1% GlutaMax. Cells were passaged every 3 days and maintained at a cell concentration below 1×10^6 to prevent differentiation.
(§3) Serial dilutions (5×) of compounds were prepared in 50:1 HBSS/HEPES.HL-60 cells (1×10^7) were incubated in 50:1 HBSS/HEPES containing 5 μM indo-1-AM (Thermo Fischer Scientific; Waltham. MA) and 0.05% pluronic acid for 0.5 hours at room temperature. Cells were centrifuged and washed with 50:1 HBSS/HEPES and resuspended in buffer. Cells were loaded onto a black 96-well Greiner Bio-One (Thermo Fischer Scientific; Waltham, MA) clear-bottom plate at 100,000 cells/well for a 5× dilution. For agonism assays, cells were immediately incubated for 15 minutes at 37° C. inside a FlexStation 3 Multimode Plate Reader (Molecular Devices; Sunnyvale, CA). Following the 15 minute incubation period, 5× of the compound was added and fluorescence was read for 150 seconds at 37° C. This method was utilized to determine the EC80 value of 7α,25·OHC (EC80=200 nM). For antagonism assays, before the addition of agonist, 5× of the antagonist was added and incubated for 15 minutes at 37° C. inside a FlexStation3. After allowing 15 minutes of equilibration, the determined EC80 of 7α,25-OHC (200 nM) was added, and fluorescence was read for 150 secs at 37° C. Calcium mobilization was determined ratiometrically using λex 350 nm and λem 405/490 nm. Dose-response data were normalized to a 0.5% DMSO vehicle control and the maximum response. From the normalized data, non-linear regression curves were then generated to calculate the appropriate EC50 and IC50 values. Each compound was run in triplicate (n=3).
Target sequence in this assay (P32249 whole entry): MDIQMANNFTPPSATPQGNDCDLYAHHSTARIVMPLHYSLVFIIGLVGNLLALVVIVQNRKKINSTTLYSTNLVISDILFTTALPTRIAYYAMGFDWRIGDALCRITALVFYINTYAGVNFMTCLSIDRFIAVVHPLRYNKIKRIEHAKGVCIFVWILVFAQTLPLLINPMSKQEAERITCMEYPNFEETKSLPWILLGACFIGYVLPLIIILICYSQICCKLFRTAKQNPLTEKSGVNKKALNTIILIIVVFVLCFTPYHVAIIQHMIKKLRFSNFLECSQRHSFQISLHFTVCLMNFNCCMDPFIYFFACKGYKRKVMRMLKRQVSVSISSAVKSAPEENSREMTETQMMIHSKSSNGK

GPR183 [3] = target: T1, GPR183; experiment: Calcium mobilization in HL-60 cells after siRNA knock-down of GPR183; assay type: cell-based; design: host or cells: HL-60 (human leukemia) cells; conditions: HL-60 cells treated with siRNA, FIG. 12E
Protocol: as §3, with “Dose-response data were normalized to a 0.5% DMSO vehicle control and the maximum response. From the normalized data, non-linear regression curves were then generated to calculate the appropriate EC50 and IC50 values. Each compound was run in triplicate (n=3).” left out
Target sequence in this assay (P32249 whole entry): as above
siRNA was purchased from Santa Cruz Biotechnology (Dallas, TX). HL-60 cells were centrifuged and counted with a hemocytometer to obtain 2.5×10^6 cells. […]

[4] = system: GPR183 signaling in the spinal cord; experiment: Example 2: cold allodynia induced by intrathecal GPR183 agonist (acetone test); assay type: in vivo, mice
Protocol: as §1, with “Acute intrathecal (i.th.) injections of compounds were performed as described previously (Lu and Schmidtko, 2013), all compounds were administered intrathecally in a total volume of 5-10 μL.” left out
Cold allodynia was measured as previously described using the acetone test (Xing et al., 2007; Yosten et al., 2020). Briefly, a small drop of acetone was applied to the hind paw of the animal using a flattened polyethylene tube and a syringe and the response to the cold stimulus was scored (0, no response; 1, brisk withdrawal or flick of the paw; 2. repeated flicking of the paw; 3. repeated flicking and licking of the paw). […] When mechanical and cold allodynia were measured on the same animal, mechano-allodynia was measured first with at least 15 minutes before testing cold allodynia.

GPR183 [5] = experiment: Example 1: mechano-allodynia induced by i.th. GPR183 agonist; assay type: in vivo, rodents
[6] = Ardecky et al., 2010; cited from earlier work
[7] = Ardecky et al., 2010; cited from earlier work; remark: listed apart in the source
GPR183 [8] = target: T1, GPR183; conditions: Benned-Jensen et al., 2013; read-out: IC50, GPR183 antagonist; cited from earlier work
Target sequence in this assay (P32249 whole entry, species assumed): as the sequence (P32249 whole entry) above

[9] = system: CCI-induced mechano-allodynia; experiment: Example 2: CCI-induced mechano-allodynia, intrathecal injection (von Frey); assay type: in vivo, mice
Protocol: as §1
CCI of the left sciatic nerve of mice and rats was performed under general anesthesia as previously described (Yosten et al., 2020). Briefly, animals were anesthetized with 2% isoflurane/O2, the left thigh was shaved and disinfected with Dermachlor solution. A small incision (1-1.5 cm) was made in the middle of the lateral aspect of the left thigh to expose the sciatic nerve. The nerve was loosely ligated around the diameter at 3 distinct sites (1 mm apart) using silk sutures (6.0, mice; 4.0, rats). The surgical site was closed with a skin clip and disinfected and treated with topical lidocaine (2%). Sham animals underwent the same procedure without nerve ligation. Peak allodynia developed by D7-D10 following CCI surgery.
as §2

[10] = system: CCI-induced neuropathic pain; experiment: Example 1: intrathecal injection in CCI-induced neuropathic pain; assay type: in vivo, rodents; conditions: for effect on behaviors on the contralateral side: intrathecal injection (5 μl), CCI; for reversal of CCI-induced neuropathic pain behaviors (allodynia) ipsilateral to injury: intrathecal injection at time of peak neuropathic pain (day 7)
GPR183 [11] = target: T1, GPR183; experiment: Calcium mobilization antagonism assay (7α,25-OHC-induced) in HL-60 cells; assay type: cell-based; design: host or cells: HL-60 (human leukemia) cells; conditions: 7α,25-OHC at EC80
Target sequence in this assay (P32249 whole entry): as above
Protocol: Serial dilutions (5×) of compounds were prepared in 50:1 HBSS/HEPES.HL-60 cells (1×10^7) were incubated in 50:1 HBSS/HEPES containing 5 μM indo-1-AM (Thermo Fischer Scientific; Waltham. MA) and 0.05% pluronic acid for 0.5 hours at room temperature. Cells were centrifuged and washed with 50:1 HBSS/HEPES and resuspended in buffer. Cells were loaded onto a black 96-well Greiner Bio-One (Thermo Fischer Scientific; Waltham, MA) clear-bottom plate at 100,000 cells/well for a 5× dilution. […] For antagonism assays, before the addition of agonist, 5× of the antagonist was added and incubated for 15 minutes at 37° C. inside a FlexStation3. After allowing 15 minutes of equilibration, the determined EC80 of 7α,25-OHC (200 nM) was added, and fluorescence was read for 150 secs at 37° C. Calcium mobilization was determined ratiometrically using λex 350 nm and λem 405/490 nm. Dose-response data were normalized to a 0.5% DMSO vehicle control and the maximum response. […]

[12] = acute i.th. on D7 post-surgery, male and female mice, SAE-1 800 nM, SAE-10 1.4 μM, SAE-14 2.9 μM

C[C@H](CCCC(C)(C)O)[C@H]1CC[C@H]2[C@@H]3[C@H](O)C=C4C[C@@H](O)CC[C@]4(C)[C@H]3CC[C@]12C [7α,25-OHC, 7α,25-dihydroxycholesterol]
induction of mechano-allodynia ([1]; acute i.th., 7α,25-OHC 24, 72, 240 nM, SLUPP-1492 615 nM, male and female mice): induced a dose and time-dependent mechano-allodynia | ED50, induction of mechano-allodynia ([1]; i.th. injection, mice, FIG. 14A): 74 nM | EC50 (GPR183 [2]): 42.4 nM | calcium response in HL-60 cells that express GPR183 (GPR183 [2]; FIG. 1): very prominent calcium response | EC80 (GPR183 [2]; HL-60 cells): 209 nM | EC80 (GPR183 [2]; HL-60 cells, listed as 7α,25·OHC): 200 nM | HillSlope (best-fit value) (GPR183 [2]; log(agonist) vs. normalized response, variable slope, HL-60 cells): 0.8624 | 7α,25-OHC-induced calcium mobilization with GPR183-specific siRNA (GPR183 [3]): abolished | induction of cold-allodynia ([4]; i.th., 7α,25-OHC 240 nM, SLUPP-1492 615 nM, mice): induced time-dependent development of cold-allodynia | ED50, induction of mechano-allodynia (GPR183 [5]; i.th. injection, n=6/dose, 3 doses): 0.031 ng

O=C(/C=C/c1ccc(Cl)cc1)N1CCC2(CC1)CN(Cc1ccc(Cl)c(Cl)c1)C(=O)O2 [GSK682753A]
microsomal stability [6]: poor | plasma stability [7]: poor | IC50 (GPR183 [8]): 200 nM

COc1ccc(C(=O)N2CCN(C(=O)/C=C/c3ccc(Br)cc3)CC2)cc1 [NIBR189]
reversal of CCI-induced mechano-allodynia ([9]; acute i.th. 0.7, 2.3, 23 μM on D7 post CCI, male mice): failed to reverse mechano-allodynia; also recorded: did not reverse | effect on behaviors on the contralateral side [10]: No effects on behaviors on the contralateral side | reversal of CCI-induced neuropathic pain behaviors (allodynia) ipsilateral to injury [10]: reversal of CCI-induced neuropathic pain behaviors ipsilateral to injury in a time- and dose-dependent manner

COc1cc(C(C)NC(=O)Cc2c(C)nc(C)[nH]c2=O)cc(OC)c1OC (stereo not drawn) [SAE-1]
reversal of CCI-induced mechano-allodynia [9, 12]: reversed CCI-induced mechanical allodynia in a time-dependent manner | effect on behaviors on the contralateral side [10]: No effects on behaviors on the contralateral side | reversal of CCI-induced neuropathic pain behaviors (allodynia) ipsilateral to injury [10]: reversal of CCI-induced neuropathic pain behaviors ipsilateral to injury in a time- and dose-dependent manner

COc1cc2c(cc1OC)CN(C(=O)NOCc1ccccc1)CC2 [SAE-10]
reversal of CCI-induced mechano-allodynia [9, 12]: reversed CCI-induced mechanical allodynia in a time-dependent manner

O=C(CCc1ccc(F)c(F)c1)Nc1cc(F)cc(N2CCOCC2)c1 [SAE-14]
prevention of mechano-allodynia induced by 7α,25-OHC ([1]; i.th. pre-treatment 0.3, 1, 3 μM, 7α,25-OHC 480 nM, male and female mice): blocked these effects of 7α,25-OHC in a dose-dependent manner; also recorded: dose-dependently prevented | reversal of CCI-induced mechano-allodynia [9, 12]: reversed CCI-induced mechanical allodynia in a time-dependent manner | reversal of CCI-induced neuropathic pain behaviors (allodynia) ipsilateral to injury [10]: reversed allodynia in a time-dependent manner | observable adverse side effects ([10]; intrathecal injection, rodents): no observable adverse side effects | prevention of cold-allodynia induced by 7α,25-OHC ([4]; i.th. pre-treatment 3 μM, 7α,25-OHC 480 nM, male and female mice): blocked these effects of 7α,25-OHC in a dose-dependent manner; also recorded: dose-dependently prevented | blockade of agonist-induced allodynia (GPR183 [5]; i.th. delivery, rodents): blocked | IC50 (GPR183 [11]): 28.5 nM
